Experimental data taken from ChEMBL document CHEMBL1131172 (J Med Chem, 1998).

Key:
A549 [1] = test: inhibition of the growth of non-small-cell lung cancer (A549/ATCC) cell line; type: functional; details: Homo sapiens
M14 [2] = test: Inhibition of the growth of melanoma cancer (M14) cell line at 0.01 uM; type: functional; details: Homo sapiens
MDA-N [3] = test: inhibition of the growth of breast cancer(MDA-N) cell line; type: functional; details: Homo sapiens
SK-MEL-5 [4] = test: Inhibition of the growth of melanoma cancer (SK-MEL-5) cell line at 0.01 uM; type: functional; details: Homo sapiens
Dihydrofolate reductase [5] = target: T1, Dihydrofolate reductase (Pneumocystis carinii, UniProt P16184)
T1 sequence (P16184 whole entry): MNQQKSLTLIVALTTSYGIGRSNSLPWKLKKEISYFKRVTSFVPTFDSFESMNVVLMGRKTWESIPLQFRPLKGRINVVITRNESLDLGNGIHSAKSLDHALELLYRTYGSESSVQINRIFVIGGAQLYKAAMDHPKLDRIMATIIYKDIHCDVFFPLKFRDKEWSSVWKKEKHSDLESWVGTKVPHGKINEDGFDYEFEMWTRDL
Description: Inhibitory activity against dihydrofolate reductase (DHFR) from Pneumocystis carinii

NCI-H522 [6] = test: Inhibition of the growth of non-small-cell lung cancer (NCI-H522) cell line at 0.01 uM; type: functional; details: Homo sapiens
UO-31 [7] = test: inhibition of the growth of renal cancer(UO-31) cell line; type: functional; details: Homo sapiens
HCT-116 [8] = test: inhibition of the growth of colon cancer(HCT116) cell line; type: functional; details: Homo sapiens
NCI-H322M [9] = test: Inhibition of the growth of non-small-cell lung cancer (NCI-H322M) cell line at 0.01 uM; type: functional; details: Homo sapiens
786-0 [10] = test: inhibition of the growth of renal cancer(786-0) cell line; type: functional; details: Homo sapiens
SK-MEL-5 [11] = test: inhibition of the growth of melanoma cancer (SK-MEL-5) cell line; type: functional; details: Homo sapiens
Dihydrofolate reductase [12] = target: T2, Dihydrofolate reductase (Rattus norvegicus, UniProt Q920D2)
T2 sequence (Q920D2 whole entry): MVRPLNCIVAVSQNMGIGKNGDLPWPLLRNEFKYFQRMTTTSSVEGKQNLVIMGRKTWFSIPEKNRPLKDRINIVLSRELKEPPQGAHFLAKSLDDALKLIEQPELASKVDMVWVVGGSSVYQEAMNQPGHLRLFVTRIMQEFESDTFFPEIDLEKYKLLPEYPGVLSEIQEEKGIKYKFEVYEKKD
Description: Inhibitory activity against dihydrofolate reductase (DHFR) from rat liver

NCI-H322M [13] = test: inhibition of the growth of non-small-cell lung cancer (NCI-H322M) cell line; type: functional; details: Homo sapiens
DU-145 [14] = test: Inhibition of the growth of prostate cancer(DU-145) cell line at 0.01 uM; type: functional; details: Homo sapiens
A549 [15] = test: Inhibition of the growth of non-small-cell lung cancer (A549/ATCC) cell line at 0.01 uM; type: functional; details: Homo sapiens
MOLT-4 [16] = test: Inhibition of the growth of leukemia (MOLT-4) cell line at 0.01 uM; type: functional; details: Homo sapiens
SF-268 [17] = test: Inhibition of the growth of CNS cancer(SF-268) cell line at 0.01 uM; type: functional; details: Homo sapiens
NCI/ADR-RES [18] = test: Inhibition of the growth of breast cancer (MCF7/ADR-RES) cell line at 0.01 uM; type: functional; details: Homo sapiens
KM12 [19] = test: Inhibition of the growth of colon cancer(KM-12) cell line at 0.01 uM; type: functional; details: Homo sapiens
NCI-H23 [20] = test: Inhibition of the growth of non-small-cell lung cancer (NCI-H23) cell line; type: functional; details: Homo sapiens
NCI/ADR-RES [21] = test: inhibition of the growth of breast cancer (MCF7/ADR-RES) cell line; type: functional; details: Homo sapiens
NCI-H460 [22] = test: inhibition of the growth of non-small-cell lung cancer (NCI-H460) cell line; type: functional; details: Homo sapiens
SR [23] = test: Inhibition of the growth of leukemia(SR) cell line at 0.01 uM; type: functional; details: Homo sapiens
SNB-19 [24] = test: inhibition of the growth of CNS cancer(SNB-19) cell line; type: functional; details: Homo sapiens
786-0 [25] = test: Inhibition of the growth of renal cancer(786-0) cell line at 0.01 uM; type: functional; details: Homo sapiens
OVCAR-8 [26] = test: Inhibition of the growth of ovarian cancer(OVCAR-8) cell line at 0.01 uM; type: functional; details: Homo sapiens
MOLT-4 [27] = test: Inhibition of the growth of leukemia (MOLT-4) cell line; type: functional; details: Homo sapiens
MDA-MB-435 [28] = test: Inhibition of the growth of breast cancer (MDA-MB-435) cell line at 0.01 uM; type: functional; details: Homo sapiens
MDA-N [29] = test: Inhibition of the growth of breast cancer(MDA-N) cell line at 0.01 uM; type: functional; details: Homo sapiens
RPMI-8226 [30] = test: Inhibition of the growth of leukemia (RPMI-8226) cell line; type: functional; details: Homo sapiens
IGROV-1 [31] = test: Inhibition of the growth of ovarian cancer(IGROVI) cell line at 0.01 uM; type: functional; details: Homo sapiens
SNB-19 [32] = test: Inhibition of the growth of CNS cancer(SNB-19) cell line at 0.01 uM; type: functional; details: Homo sapiens
HCT-15 [33] = test: Inhibition of the growth of colon cancer(HCT-15) cell line at 0.01 uM; type: functional; details: Homo sapiens
SF-295 [34] = test: Inhibition of the growth of CNS cancer(SF-295) cell line at 0.01 uM; type: functional; details: Homo sapiens
MCF7 [35] = test: Inhibition of the growth of breast cancer (MCF-7) cell line at 0.01 uM; type: functional; details: Homo sapiens
SF-539 [36] = test: inhibition of the growth of CNS cancer(SF-539) cell line; type: functional; details: Homo sapiens
RPMI-8226 [37] = test: Inhibition of the growth of leukemia (RPMI-8226) cell line at 0.01 uM; type: functional; details: Homo sapiens
NCI-H460 [38] = test: Inhibition of the growth of non-small-cell lung cancer (NCI-H460) cell line at 0.01 uM; type: functional; details: Homo sapiens
OVCAR-8 [39] = test: inhibition of the growth of ovarian cancer(OVCAR-8) cell line; type: functional; details: Homo sapiens
CAKI-1 [40] = test: Inhibition of the growth of renal cancer(CAKI-1) cell line at 0.01 uM; type: functional; details: Homo sapiens
SF-268 [41] = test: inhibition of the growth of CNS cancer(SF-268) cell line; type: functional; details: Homo sapiens
KM12 [42] = test: inhibition of the growth of colon cancer(KM-12) cell line; type: functional; details: Homo sapiens
CAKI-1 [43] = test: inhibition of the growth of renal cancer(CAKI-1) cell line; type: functional; details: Homo sapiens
NCI-H23 [44] = test: Inhibition of the growth of non-small-cell lung cancer (NCI-H23) cell line at 0.01 uM; type: functional; details: Homo sapiens
HCT-15 [45] = test: inhibition of the growth of colon cancer(HCT-15) cell line; type: functional; details: Homo sapiens
NCI-H522 [46] = test: inhibition of the growth of non-small-cell lung cancer (NCI-H522) cell line; type: functional; details: Homo sapiens
SF-295 [47] = test: inhibition of the growth of CNS cancer(SF-295) cell line; type: functional; details: Homo sapiens
UO-31 [48] = test: Inhibition of the growth of renal cancer(UO-31) cell line at 0.01 uM; type: functional; details: Homo sapiens
IGROV-1 [49] = test: inhibition of the growth of ovarian cancer(IGROVI) cell line; type: functional; details: Homo sapiens
M14 [50] = test: inhibition of the growth of melanoma cancer (M14) cell line; type: functional; details: Homo sapiens
[51] = target: T3, Bifunctional dihydrofolate reductase-thymidylate synthase (Toxoplasma gondii, UniProt Q07422)
T3 sequence (Q07422 whole entry): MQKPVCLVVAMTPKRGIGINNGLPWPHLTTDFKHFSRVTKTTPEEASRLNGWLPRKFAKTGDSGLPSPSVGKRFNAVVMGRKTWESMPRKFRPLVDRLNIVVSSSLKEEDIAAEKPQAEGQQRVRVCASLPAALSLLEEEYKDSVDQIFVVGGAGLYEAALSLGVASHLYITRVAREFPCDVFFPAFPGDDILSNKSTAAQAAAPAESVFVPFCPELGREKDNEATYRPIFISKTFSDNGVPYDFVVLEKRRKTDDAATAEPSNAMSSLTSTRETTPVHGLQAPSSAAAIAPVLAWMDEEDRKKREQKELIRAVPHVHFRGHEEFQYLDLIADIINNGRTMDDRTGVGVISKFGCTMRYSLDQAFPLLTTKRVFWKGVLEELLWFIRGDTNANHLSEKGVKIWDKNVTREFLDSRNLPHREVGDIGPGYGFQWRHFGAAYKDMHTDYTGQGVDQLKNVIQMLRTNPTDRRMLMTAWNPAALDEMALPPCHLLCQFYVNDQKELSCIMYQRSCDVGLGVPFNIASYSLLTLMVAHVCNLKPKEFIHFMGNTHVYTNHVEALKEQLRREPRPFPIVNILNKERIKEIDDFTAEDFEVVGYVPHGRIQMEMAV
Description: Inhibitory activity against dihydrofolate reductase (DHFR) from Toxoplasma gondii

MDA-MB-435 [52] = test: inhibition of the growth of breast cancer (MDA-MB-435) cell line; type: functional; details: Homo sapiens
HCT-116 [53] = test: Inhibition of the growth of colon cancer(HCT116) cell line at 0.01 uM; type: functional; details: Homo sapiens
MCF7 [54] = test: inhibition of the growth of breast cancer (MCF-7) cell line; type: functional; details: Homo sapiens
SF-539 [55] = test: Inhibition of the growth of CNS cancer(SF-539) cell line at 0.01 uM; type: functional; details: Homo sapiens
SR [56] = test: Inhibition of the growth of leukemia(SR) cell line; type: functional; details: Homo sapiens
DU-145 [57] = test: inhibition of the growth of prostate cancer(DU-145) cell line; type: functional; details: Homo sapiens

GI50 (A549 [1]): < 10 nM
IC50 (Dihydrofolate reductase [5]): 34 nM
GI50 (HCT-116 [8]): < 10 nM
GI50 (786-0 [10]): < 10 nM
GI50 (SK-MEL-5 [11]): < 10 nM
IC50 (Dihydrofolate reductase [12]): 4.2 nM
GI50 (NCI-H322M [13]): < 10 nM
GI50 (NCI-H23 [20]): < 10 nM
GI50 (NCI-H460 [22]): < 10 nM
GI50 (MOLT-4 [27]): < 10 nM
GI50 (RPMI-8226 [30]): < 10 nM
GI50 (OVCAR-8 [39]): < 10 nM
GI50 (HCT-15 [45]): < 10 nM
GI50 (NCI-H522 [46]): < 10 nM
GI50 (MDA-MB-435 [52]): < 10 nM
GI50 (MCF7 [54]): < 10 nM
GI50 (DU-145 [57]): < 10 nM
Structure (SMILES): COc1ccc(OC)c(N(C)c2ccc3nc(N)nc(N)c3n2)c1
inhibition at 0.01 µM (M14 [2]): 61%
GI50 (MDA-N [3]): < 10 nM
inhibition at 0.01 µM (SK-MEL-5 [4]): 76%
inhibition at 0.01 µM (NCI-H522 [6]): 67%
GI50 (UO-31 [7]): < 10 nM
inhibition at 0.01 µM (NCI-H322M [9]): 58%
inhibition at 0.01 µM (DU-145 [14]): 57%
inhibition at 0.01 µM (A549 [15]): 72%
inhibition at 0.01 µM (MOLT-4 [16]): 54%
inhibition at 0.01 µM (SF-268 [17]): 57%
inhibition at 0.01 µM (NCI/ADR-RES [18]): 82%
inhibition at 0.01 µM (KM12 [19]): 55%
GI50 (NCI/ADR-RES [21]): < 10 nM
inhibition at 0.01 µM (SR [23]): 68%
GI50 (SNB-19 [24]): < 10 nM
inhibition at 0.01 µM (786-0 [25]): 55%
inhibition at 0.01 µM (OVCAR-8 [26]): 75%
inhibition at 0.01 µM (MDA-MB-435 [28]): 70%
inhibition at 0.01 µM (MDA-N [29]): 59%
inhibition at 0.01 µM (IGROV-1 [31]): 66%
inhibition at 0.01 µM (SNB-19 [32]): 73%
inhibition at 0.01 µM (HCT-15 [33]): 70%
inhibition at 0.01 µM (SF-295 [34]): 69%
inhibition at 0.01 µM (MCF7 [35]): 58%
GI50 (SF-539 [36]): < 10 nM
inhibition at 0.01 µM (RPMI-8226 [37]): 68%
inhibition at 0.01 µM (NCI-H460 [38]): 82%
inhibition at 0.01 µM (CAKI-1 [40]): 70%
GI50 (SF-268 [41]): < 10 nM
GI50 (KM12 [42]): < 10 nM
GI50 (CAKI-1 [43]): < 10 nM
inhibition at 0.01 µM (NCI-H23 [44]): 78%
GI50 (SF-295 [47]): < 10 nM
inhibition at 0.01 µM (UO-31 [48]): 100%
GI50 (IGROV-1 [49]): < 10 nM
GI50 (M14 [50]): < 10 nM
IC50 [51]: 41 nM
inhibition at 0.01 µM (HCT-116 [53]): 83%
inhibition at 0.01 µM (SF-539 [55]): 65%
GI50 (SR [56]): < 10 nM
